Assay results as given in patent US9301951B2 (Ardelyx, Inc., priority 2010, dated 2016).

Legend:
Sprague-Dawley rats [1] = assay: In vivo bolus phosphorus challenge (serum phosphate elevation); conditions: rat; oral; drug dose 30; phosphate bolus 15 min after compound; serum 30 min post bolus
Experimental: By pretreating animals with a low phosphorus diet followed by the subsequent dosing of a phosphorus bolus, serum phosphorus levels were monitored after 30 minutes as a surrogate for intestinal phosphorus absorption. […] The in vivo bolus phosphorus challenge model used here mimics this model in rats.
Male, 7-week-old Sprague-Dawley rats (Charles-River laboratories international, Hollister, Calif.) were allowed to acclimatize for a minimum of 3 days before switching to a synthetic low-phosphorus diet (TD.85010, Harlan Teklad, Madison, Wis.) which contains 0.1% phosphorus and 0.6% calcium. At day 5, testing compounds or vehicle alone (as indicated) were orally administered at the indicated dose in a volume of 5 ml/kg, followed by a bolus gavage of monobasic sodium phosphate (1 mmol in 1 ml) 15 min after compound dosing. Serum was collected via retroorbital bleeding 30 min post phosphate bolus and phosphate levels were determined utilizing an ACE ALERA blood chemistry analyzer (Alfa Wassermann Diagnostic Technologies, West Caldwell, N.J.).
The extent of inhibition by test compounds on the elevation of serum phosphate levels in response to the bolus of phosphorus is shown in Table 12 (data are expressed as % Inhibition, with 6-10 animals per data point). The differences between groups were evaluated by one-way analysis of variance with Dunnett's post hoc tests.

NaPi2b = assay: Competition with phosphate: Pi uptake assay repeated at 2.1 vs 0.1 mM phosphate; type: cell-based; conditions: potency at 2.1 vs 0.1 mM phosphate
Excerpt: In certain preferred embodiments, the phosphate transport inhibitors of the present invention are not competitive inhibitors with respect to phosphate of Na/phosphate co-transport. In certain other preferred embodiments, the phosphate transport inhibitors of the invention are non-competitive inhibitors. Non-competitive inhibitors maintain their degree of inhibition irrespective of the local phosphate concentration. This feature is an important aspect in providing an efficient blockade of intestinal transport in postprandial state, where the local concentration of dietary phosphate can attain concentration as high as 10 mM. It is believed that competitive inhibitors are too sensitive to local phosphate concentration and unable to block phosphate uptake following a high phosphorus meal. Various methods are available for determining whether a phosphate transport inhibitor is non-competitive or competitive. For example, a phosphate uptake assay can be performed and the IC50 values for a compound at different phosphate concentrations can be determined (e.g., “Enzyme kinetics”, I. Segel, 1975, John-Wiley & Sons, p. 123). IC50 values for non-competitive inhibitors will remain the same or similar with respect to the phosphate concentration, whereas IC50 values for competitive inhibitors will increase (i.e. lose potency) as phosphate concentration increases. […]

[2] = Fecal recovery of orally administered compounds; type: in vivo; conditions: rat; oral gavage; feces collected until 48 hr after dosing
Excerpt: In this respect, it is understood that a recovered compound can include the sum of the parent compound and its metabolites derived from the parent compound, e.g., by means of hydrolysis, conjugation, reduction, oxidation, N-alkylation, glucuronidation, acetylation, methylation, sulfation, phosphorylation, or any other modification that adds atoms to or removes atoms from the parent compound, wherein the metabolites are generated via the action of any enzyme or exposure to any physiological environment including, pH, temperature, pressure, or interactions with foodstuffs as they exist in the digestive milieu. Measurement of fecal recovery of compound and metabolites can be carried out using standard methodology. For example, compound can be administered orally at a suitable dose (e.g., 10 mg/kg) and feces are then collected at predetermined times after dosing (e.g., 24 hours, 48 hours, 72 hours). Parent compound and metabolites can be extracted with organic solvent and analyzed quantitatively using mass spectrometry. A mass balance analysis of the parent compound and metabolites (including, parent=M, metabolite 1 [M+16], and metabolite 2 [M+32]) can be used to determine the percent recovery in the feces.
Quantitative determination of test compound level in feces after oral gavage was performed using the same set of animals used to determine test compound concentration in plasma (Example 352). The animals were kept in metabolic cages and feces were collected from the time of dosing until 48 hr after dosing. Upon collection, feces were dried by lyophilization and ground to a visually homogenous powder. Duplicate samples of ground feces from each individual animal were weighed out and extracted using organic solvent. Extracted samples were then diluted into mobile phase and test compound levels were quantitatively determined by LC-MS/MS analysis as described in Example 352 except that the standard curve was prepared in a feces matrix. Extraction conditions were not optimized for individual compounds, and thus may represent a minimal level of recovery.

[3] = Stability of compounds in simulated intestinal fluid (SIF); type: in vitro ADME; conditions: simulated intestinal fluid (USP, 3 mg/mL pancreatin), 1-20 μM, incubation time 6 hr, relative to t=0
Experimental: Test compounds were incubated at 1-20 μM in simulated gastric fluid (SGF; standard USP solution with 3 mg/mL pepsin) or simulated intestinal fluid (SIF; standard USP solution with 3 mg/mL pancreatin) for 3 hr or 6 hr. HPLC-UV or HPLC-MS were used to determine test compound levels using peak area %. Results (Table 14) were reported as the percentage of test compound remaining after incubation in a given condition relative to test compound present at t=0 in the same condition.

Sprague-Dawley rats [4] = assay: In vivo co-dosing in chow (urine P out / P consumed); conditions: feed or water; rat; drug in chow, nominal 100 mg/kg/day (mean dose per line in table); urine 24-96 h; read-out: Mean % inhibition Urine Pout/P consumed
Excerpt: Male, 7-week-old Sprague-Dawley rats (Charles-River laboratories international, Hollister, Calif.) were allowed to acclimate for a minimum of 3 days. The experiment was initiated by switching animals to a synthetic diet (0.6% phosphorus and 0.6% calcium, Harlan Teklad TD.84122) for four days. After this time, the animals were placed into metabolic cages for daily monitoring of food and water consumption, as well as urine and fecal collections. Test compounds were incorporated into the powdered diet listed above containing 3% chocolate flavoring (w/w, BioServ #7345) at 1.3 mg test compound per gram of diet to achieve an average daily nominal dose of 100 mg/kg/day. The actual dose received by each animal was later determined by measuring prepared diet consumption and body weight. Urine samples were collected in three daily periods from 24-48, 48-72, and 72-96 hours of drug dosing. […] Phosphorus levels in the urine were determined by anion exchange chromatography using a Dionex ICS-3000 ion chromatography system. […] Elution of urine phosphate ions was monitored via conductivity detector and reported as ppm relative to a standard ion solution containing phosphate. Daily urinary P output relative to the P consumed in the prepared diet for each animal was calculated. […] The differences between the means of control and treated groups were evaluated by t tests. […]

SMILES	% Inhibition of Serum P elevation (Sprague-Dawley rats [1])	Competitive with respect to Pi? (NaPi2b)	% recovered in feces [2]	% remaining, SIF [3]	inhibition in vivo at 100 mg/kg/day (Sprague-Dawley rats [4])
O=C(O)CCSCc1cccc(C(=O)Nc2ccc(N3CCCCC3)cc2-c2cc(C(=O)NCc3cccc(C(F)(F)F)c3)ccn2)c1 [Example 1.1, 3-(3-((2-(4-((3-(trifluoromethyl)benzyl)carbamoyl)pyridin-2-yl)-4-(piperidin-1-yl)phenyl)carbamoyl)-benzylthio)propanoic acid]	20-30%	No	20-80%		
CCN(CC)c1ccc(NC(=O)c2cccc(C(=O)N(C)CCN3CCOCC3)c2)c(-c2cc(C(=O)NCc3cccc(C(F)(F)F)c3)ccn2)c1 [Example 25, N1-(4-(Diethylamino)-2-(4-((3-(trifluoromethyl)benzyl)carbamoyl)pyridin-2-yl)phenyl)-N3-methyl-N3-(2-morpholinoethyl)isophthalamide]			20-80%	80%	10 to 30%
